The text below walks through data of US9175077B2, “Nucleic acids encoding biologically active polypeptides derived from a novel early stage pregnancy factor designated maternin (MA)” (NOBEL BIOSCIENCES LLC, priority 1999, dated 2015).

Test [1] concerns spontaneous fibrosarcomas. Description: Spontaneous fibrosarcomas in FVB/N mice. It counts as in vivo. Particulars: treatment for 2 weeks. From the text: As shown, MA killed a wide variety of human tumor cells in vitro and in vivo killed xenotransplanted human tumors in immune deficient mice. We wanted to be certain that the in vivo results would not be limited to immune deficient mice. […] Therefore, we tested the effects of MA on: • spontaneous fibrosarcomas which developed in three older FVB/N mice; and • spontaneous breast carcinomas which developed in three older Sprague-Dawley rats.
The tumors were recognized and treated after different stages of development. Samples of the tumor cells were grown in short-term culture and when treated with MA underwent rapid apoptosis.

For another test, the system named is B16 melanoma. Description: Pro-apoptotic effect on cultured B16 melanoma cells. The format is cell-based, mouse. Conditions: same dose range as cultured human tumor cells. How it is done:
(§1) B16 melanoma and Lewis lung (LL) carcinoma cells were first shown to be susceptible to the pro-apoptotic effects of MA (FIG. 6, Panels C and D) at the same dose range used with cultured human tumor cells. The tumor cells grown in standard culture conditions were used to generate metastatic cancers in pathogen-free 6-8 week old C57/BL mice (Charles River). In one set of experiments, the animals were treated with MAS1 or MAS2 at two doses, 0.1 ug or 1.0 ug either in a pre-treatment protocol (two subcutaneous inoculations 24 and 48 hrs before transplanting the tumor cells).

In test [2] the test system is Lewis lung (LL) carcinoma cells. Description: Pro-apoptotic effect on cultured Lewis lung carcinoma cells. The format is cell-based, mouse. Particulars: same dose range as cultured human tumor cells. How it is done: as §1
The test system of test [3] is B16 melanoma and Lewis lung (LL) carcinoma. Description: Metastatic B16 melanoma and Lewis lung carcinoma in C57/BL mice. It counts as in vivo. Particulars: MAS1 or MAS2 0.1 ug or 1.0 ug. As for the experimental part:
as §1

The next test deals with HIV-1 gene expression. Kind of test: HIV-1 transgenic mice, pups feeding from treated mothers. Conditions: for survival / development of pups (qualitative): mothers treated, pups breast fed. It counts as in vivo.
The nature of a further test: Acutely bled rats. It counts as in vivo, Sprague-Dawley rats. Particulars: i.p. 24 and 48 hrs after 35-40% blood loss. From the text: To delineate the effects of MA on hematopoiesis in the absence of any external bone marrow suppression, blood (35-40% of total blood volume) was removed from five Sprague-Dawley rats by intracardiac puncture. […] Each panel illustrates the mean values for the three animals treated with MAS1. Thus, MA and related derivatives have potent pro-hematopoietic effects.

Test [4] concerns human primitive hematopoietic stem cells. Description: Long term cultures (LTC-IC, stroma-free) of CD34+, CD38− cells from human BMMC. The format is cell-based. How it is done: In the human system, a long-term culture-initiating assay (LTC-IC) can be used to detect cells that can generate myeloid clonogenic cells (CFC/colony forming cells) in long-term cultures for a minimum of 5 weeks. Bone marrow stromal was produced by culturing 107 fresh BM-MNC in a T25 flash for at least 2 weeks in 5 mL stromal medium; 12.5% horse [HS] and 12.5% fetal calf serum [FCS]; both from hyclone [Logan, Utah], Iscove's modified Dulbecco's medium [IMDM, GIBCO-BRL], 2-mercaptoethanol [Sigma, st. Louis, Mo.], 10^−6 mol/L hydrocortisone [Sigma] and penicillin/streptomycine.
One or 2 days before co-cultures, bone marrow stroma was irradiated with 15Gy and plated at 7×10^3/cm^2 in 24-well plates to form pre-established stromal layers for the long-term cultures. Limiting dilution was 1 to 1000 CD34+ bone marrow/cord blood cells and equivalent aliquots, i.e., limiting dilutions of the cells grown in long-term cultures stroma-free cultures after 2 to 20 weeks were seeded on top of the irradiated bone marrow stroma in culture medium containing IMDM, 12.5% HS, 12.5% FCS, 2-mercptoethanol, and 10^−6 mon-hydrocortisone for 5 weeks LTC-IC assay period. Non-adherent cells were removed from the cultures, combined with the corresponding trypsinized adherent cells, washed and assayed for colony forming units (CFU-Cs) in methylcellulose medium containing 1.3% methylcellulose (Fluka Chemilka Biochemika, buck\hs, Switzerland), 30% FCS, EPO (3 U/ml), IL-3 (20 ng/ml), G-CSF (20 ng/ml), GM-CSF (20 ng/ml) and KL (c-kit, 50 ng/ml). These cultures were incubated at 37° C. and colonies were scored 2 to 3 weeks later. LTC-IC enumeration was based on the number of CFU-C scored in the limiting assays [LDA] and another technique.
Stroma-free long-term cultures were performed as follows. 2 to 10×10^3 CD34+/CD34^−CD38^− from bone marrow/CB/PBMC cells were cultured in quadrutriplicate flat bottomed 24 well plates in 1 ml to of IMDM supplemented with 10% FCS and the following cytokines: IL-3 (10 ng/ml), IL-6 (10 ng/ml), KL [c-kit 50 ng/ml, FL (50 ng/ml) and TPO (10 U/ml), which added, alone or in combination of two or more factors, to each series of microwells twice a week. The wells were grown at 37° C. and share a number of features with in vivo murine long-term repopulating cells. These include assay for cobblestone areas colony forming cells (CAFC), high proliferative potentials colony-forming cells (HPP-CFC), CFU-GEMM, CFU-B1 (blast colony forming units).

Setting [5] is: LTC stroma free after 3 mos, n = 3.

“And” between values parts separate entries of the source, which are not always exact repeats. Identical values can stand only once. “Also recorded” adds a separate entry of the source.

For the sequence “VVCNYRDVRFESIRLPGCPRGVNPVVSYAVALSCQ [MA]”, the tumor outcome in test [1] is “complete abolishment of the tumor in two of three animals; also recorded: Partial regression was observed in one animal”. In the test with B16 melanoma, the “susceptibility to pro-apoptotic effects” value is “susceptible”. Moreover, the “susceptibility to pro-apoptotic effects” value in test [2] is on record as “susceptible”. In addition, in test [3], the “pro-apoptotic effect on neoplastic cells in vivo” value was “potent pro-apoptotic effect”. The “weight over the ten day period” value with HIV-1 gene expression (30-150 pmoles) is given as “quadrupled their weight”. The “animals that eventually died” value with HIV-1 gene expression (low dose (30 pmoles), after 2 mos) was “about 50%”. The “survival / development of pups (qualitative)” value with HIV-1 gene expression is “survived”. In addition, the “survival / development of pups (qualitative)” value in the test on HIV-1 gene expression (listed as native MA) is recorded as “normal development”. The “HIV-1 viral expression in tissues” value in the test with HIV-1 gene expression (mouse, in vivo) is listed as “marked inhibition of viral expression”. The “recovery of peripheral blood cells” value in “Acutely bled rats” is “prompt recovery”. Besides, in test [4] (setting [5]), the BFU-e turned out to be 161 ± 8, the CFU-GM turned out to be 198 ± 11, the CFU-Mixed was determined as 13 ± 3 and the T-CFC stood at 199 ± 10. In test [4] (culture 3), the “CFU-GM: % of CD14” value was 27% and the “CFU-GM: % of CD68” value is on record as 22%. In addition, in test [4] (culture 3 (LTC stroma free treated with MA)), the “CD34+ cells” value was 77.71%. In test [4] (for 1, 2, and 3 (respectively)), the “T colonies Rx MA: CD3+/CD4+” value is 38% and 28% and 46%; the “T colonies Rx MA: CD3+/CD8+” value was 32% and 29% and 49%.
